Peptide text beside a SMILES is read from it. * marks the point of attachment. Dansyl = CN(C)c1cccc2c(S(=O)(=O)*)cccc12
Columns and labels:
N-SH3 D138A (Crkl) [1] = target: T1, N-SH3 D138A (Crkl) (Homo sapiens, UniProt P46109, D138A); assay: Stopped-flow displacement, N-SH3 D138A:dansylated C3G277–296 complex; type: binding; details: pH 7.5, D138A, 50 mM Hepes pH 7.5, 10 °C
T1 construct: The construct encoding the N-SH3 domain of Crkl was subcloned in a pET28b+ plasmid vector; His-tag; made in house; host or cells: E. coli BL21
Experimental: (§1) We rapidly mixed a constant concentration of C3G277–296 peptide (0.5 µM) versus increasing concentrations of N-SH3 (ranging from 0.5 to 5 µM) and the observed rate constants (kobs) obtained at different ionic strength conditions (buffer Hepes 50 mM, pH 7.0, 0.15 M, 0.3 M, 0.5 M and 1 M NaCl) were plotted as function of concentration of N-SH3 and fitted with a linear equation (Figure 1). By following previously derived equations [19, 20], the dependence of kobs as function of [N-SH3] was fitted with Equation (1), taking into account the non-pseudo-first order conditions, allowing us to calculate the microscopic association rate constant (kon), the microscopic dissociation rate constant (koff) of the binding reaction and the equilibrium dissociation rate constant KD, such as koff/kon. To increase the reliability of the calculated KD, we resorted to directly obtaining a koff value through displacement experiments (Table 1), in which a preincubated complex of N-SH3 domain and dansylated C3G277–296 peptide (at the concentration of 0.5 and 2 µM, respectively) were rapidly mixed versus a high excess of nondansylated peptide (ranging from 20 to 40 µM). In agreement with the theory in [21], the observed rate constants were insensitive to displacer concentration. In all binding and displacement experiments conducted, traces were satisfactorily fitted with a single-exponential equation. (1) kobs=(kon^2∗(2−[NSH3])^2+koff^2+2konkoff(2+[NSH3]))^1/2
(§2) Kinetic binding experiments were performed on a single-mixing SX-18 stopped-flow instrument (Applied Photophysics), by mixing a constant concentration (0.5 μM) of C3G dansylated versus increasing concentrations of N-SH3 at 10 °C. Ionic strength dependence of wt N-SH3 was performed with concentrations ranging from 1 to 5 µM for 0 M NaCl condition and from 0.5 to 5 µM for 0.15 M, 0.3 M, 0.5 M and 1 M NaCl, buffer Hepes 50 mM pH 7.0. The excitation wavelength was 280 nm, and fluorescence was collected using a 455 nm cut-off filter. At least, five independent acquisitions were collected and averaged for each experiment. The resulting averages were all satisfactorily fitted with a single-exponential equation. Buffers used for pH dependence were: 50 mM Sodium Acetate pH 5.0, 50 mM Sodium Acetate, pH 5.5, Bis–Tris 50 mM pH 6.0, Bis–Tris 50 mM pH 6.5, Hepes 50 mM pH 7.0, Hepes 50 mM pH 7.5, Tris–HCl 50 mM pH 8.0, Tris–HCl 50 mM pH 8.5, Tris–HCl 50 mM pH 9.0, all with added 0.5 M NaCl. Concentrations of N-SH3 used for each experiment were: 4.0–8.0 µM at pH 5.0, 2.0–7.0 µM at pH 5.5, 1.0–5.0 µM at pH 6.0, 0.5–5.0 µM at pH 6.5, 1.5–6.0 µM at pH 7.0, 0.5–5.0 µM at pH 7.5, 1.5–6.0 µM at pH 8.0, 1.5–6.0 µM pH 8.5, 1.5–6.0 µM at pH 9.0. […]

[2] = target: T2, N-SH3 domain of Crkl (WT) (Homo sapiens, UniProt P46109); assay: Stopped-flow displacement, N-SH3 WT:dansylated C3G277–296 complex versus nondansylated peptide; type: binding; details: 10 °C
T2 construct: The construct encoding the N-SH3 domain of Crkl was subcloned in a pET28b+ plasmid vector; His-tag; made in house; host or cells: E. coli BL21
Experimental: as §1
Kinetic binding experiments were performed on a single-mixing SX-18 stopped-flow instrument (Applied Photophysics), by mixing a constant concentration (0.5 μM) of C3G dansylated versus increasing concentrations of N-SH3 at 10 °C. Ionic strength dependence of wt N-SH3 was performed with concentrations ranging from 1 to 5 µM for 0 M NaCl condition and from 0.5 to 5 µM for 0.15 M, 0.3 M, 0.5 M and 1 M NaCl, buffer Hepes 50 mM pH 7.0. The excitation wavelength was 280 nm, and fluorescence was collected using a 455 nm cut-off filter. At least, five independent acquisitions were collected and averaged for each experiment. The resulting averages were all satisfactorily fitted with a single-exponential equation. Buffers used for pH dependence were: 50 mM Sodium Acetate pH 5.0, 50 mM Sodium Acetate, pH 5.5, Bis–Tris 50 mM pH 6.0, Bis–Tris 50 mM pH 6.5, Hepes 50 mM pH 7.0, Hepes 50 mM pH 7.5, Tris–HCl 50 mM pH 8.0, Tris–HCl 50 mM pH 8.5, Tris–HCl 50 mM pH 9.0, all with added 0.5 M NaCl. Concentrations of N-SH3 used for each experiment were: 4.0–8.0 µM at pH 5.0, 2.0–7.0 µM at pH 5.5, 1.0–5.0 µM at pH 6.0, 0.5–5.0 µM at pH 6.5, 1.5–6.0 µM at pH 7.0, 0.5–5.0 µM at pH 7.5, 1.5–6.0 µM at pH 8.0, 1.5–6.0 µM pH 8.5, 1.5–6.0 µM at pH 9.0. For the ionic strength dependence of D138A and E140A variants buffer used were 0.05 M NaCl, 0.1 M NaCl, 0.15 M NaCl, in 50 mM Hepes pH 7.5. Concentrations of N-SH3 D138A used for each experiment were: 2.0–4.5 µM at 0 M NaCl, 2.5–6.0 µM at 0.05 M, 0.1 M, 0.15 M NaCl. Concentrations of N-SH3 E140A used for each experiment were: 2.0–4.5 µM at 0 M NaCl, 3.0–5.5 µM at 0.05 M NaCl, 3.0–5.0 µM at 0.1 M NaCl, 3.0–5.5 µM at 0.15 M NaCl. Displacement kinetic experiments were performed by mixing a preincubated complex of N-SH3 (in all its variants) and dansylated C3G versus a high excess of nondansylated C3G (see text for details). Experiments were performed in the same buffer conditions as the binding experiments, except for D141A variant, for which 20% w/v sucrose was added to the buffer Hepes 50 mM pH 7.0. Displacement traces were fitted with a single-exponential equation.

N-SH3 E140A (Crkl) [3] = target: T3, N-SH3 E140A (Crkl) (Homo sapiens, UniProt P46109, E140A); assay: Stopped-flow displacement, N-SH3 E140A:dansylated C3G277–296 complex; type: binding; details: pH 7.5, E140A, 50 mM Hepes pH 7.5, 10 °C
T3 construct: The construct encoding the N-SH3 domain of Crkl was subcloned in a pET28b+ plasmid vector; His-tag; made in house; host or cells: E. coli BL21
Experimental: as §1, §2

N-SH3 E140A (Crkl) [4] = target: T3, N-SH3 E140A (Crkl); assay: Stopped-flow kinetic binding, N-SH3 E140A versus C3G277–296; details: pH 7.5, E140A, 50 mM Hepes pH 7.5, 10 °C
Experimental: as §1
(§3) Then, we employed D138A, E140A and D141A variants in kinetic binding experiments with C3G, and we explored the effect of increasing ionic strength on the binding reaction of these variants.
as §2, with “NaCl.” for “NaCl. Concentrations of N-SH3 used for each experiment were: 4.0–8.0 µM at pH 5.0, 2.0–7.0 µM at pH 5.5, 1.0–5.0 µM at pH 6.0, 0.5–5.0 µM at pH 6.5, 1.5–6.0 µM at pH 7.0, 0.5–5.0 µM at pH 7.5, 1.5–6.0 µM at pH 8.0, 1.5–6.0 µM pH 8.5, 1.5–6.0 µM at pH 9.0.”

N-SH3 D138A (Crkl) [5] = target: T1, N-SH3 D138A (Crkl); assay: Stopped-flow kinetic binding, N-SH3 D138A versus C3G277–296; details: pH 7.5, D138A, 50 mM Hepes pH 7.5, 10 °C
Experimental: as §1, §3
as §2, with “NaCl.” for “NaCl. Concentrations of N-SH3 used for each experiment were: 4.0–8.0 µM at pH 5.0, 2.0–7.0 µM at pH 5.5, 1.0–5.0 µM at pH 6.0, 0.5–5.0 µM at pH 6.5, 1.5–6.0 µM at pH 7.0, 0.5–5.0 µM at pH 7.5, 1.5–6.0 µM at pH 8.0, 1.5–6.0 µM pH 8.5, 1.5–6.0 µM at pH 9.0.”

T2 sequence (P46109 123-183 limits assumed): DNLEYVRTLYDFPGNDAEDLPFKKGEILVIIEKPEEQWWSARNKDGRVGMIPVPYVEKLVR
T3 sequence (P46109 123-183 E140A limits assumed): as the sequence (P46109 123-183 limits assumed) above, with E18A counted along it
T1 sequence (P46109 123-183 D138A limits assumed): as the sequence (P46109 123-183 limits assumed) above, with D16A counted along it

CC(C)C[C@H](NC(=O)[C@H](C)NC(=O)[C@@H]1CCCN1C(=O)[C@@H]1CCCN1C(=O)[C@@H]1CCCN1C(=O)[C@H](CO)NC(=O)[C@H](CC(N)=O)NC(=O)[C@H](CC(=O)O)NC(=O)[C@@H](NC(=O)[C@@H](NS(=O)(=O)c1cccc2c(N(C)C)cccc12)C(C)C)C(C)C)C(=O)N1CCC[C@H]1C(=O)N1CCC[C@H]1C(=O)N[C@@H](CCCCN)C(=O)N[C@@H](CCCCN)C(=O)N[C@@H](CCCNC(=N)N)C(=O)N[C@@H](CCC(N)=O)C(=O)N[C@@H](CO)C(=O)N[C@@H](C)C(=O)N1CCC[C@H]1C(=O)N[C@@H](CO)C(=O)O [C3G277–296] (Dansyl-VVDNSPPPALPPKKRQSAPS-OH)
koff (N-SH3 D138A (Crkl) [1]; 0 M NaCl): 139 ± 1 s⁻¹ | koff (N-SH3 D138A (Crkl) [1]; 0.05 M NaCl): 212 ± 2 s⁻¹ | koff (N-SH3 D138A (Crkl) [1]; 0.10 M NaCl): 183 ± 2 s⁻¹ | koff (N-SH3 D138A (Crkl) [1]; 0.15 M NaCl): 254 ± 2 s⁻¹ | koff ([2]; pH 5, pH 5.0 (50 mM Sodium Acetate), 0.5 M NaCl, displacement): 257 ± 10 s⁻¹ | koff ([2]; pH 5.5, pH 5.5 (50 mM Sodium Acetate), 0.5 M NaCl, displacement): 81 ± 3 s⁻¹ | koff ([2]; pH 6, pH 6.0 (Bis–Tris 50 mM), 0.5 M NaCl, displacement): 78 ± 3 s⁻¹ | koff ([2]; pH 6.5, pH 6.5 (Bis–Tris 50 mM), 0.5 M NaCl, displacement): 65 ± 2 s⁻¹ | koff ([2]; pH 7, 0 M NaCl, Hepes 50 mM pH 7.0, displacement by 20–40 µM nondansylated peptide): 12 ± 1 s⁻¹ | koff ([2]; pH 7, 0.15 M NaCl, Hepes 50 mM pH 7.0, displacement): 23 ± 1 s⁻¹ | koff ([2]; pH 7, 0.3 M NaCl, Hepes 50 mM pH 7.0, displacement): 32 ± 2 s⁻¹ | koff ([2]; pH 7, 0.5 M NaCl (ionic strength series), Hepes 50 mM pH 7.0, displacement): 34 ± 1 s⁻¹ | koff ([2]; pH 7, 1.0 M NaCl, Hepes 50 mM pH 7.0, displacement): 51 ± 2 s⁻¹ | koff ([2]; pH 7, pH 7.0 (Hepes 50 mM), 0.5 M NaCl (pH series), displacement): 42 ± 2 s⁻¹ | koff ([2]; pH 7.5, pH 7.5 (Hepes 50 mM), 0.5 M NaCl, displacement): 34 ± 2 s⁻¹ | koff ([2]; pH 8, pH 8.0 (Tris–HCl 50 mM), 0.5 M NaCl, displacement): 46 ± 3 s⁻¹ | koff ([2]; pH 8.5, pH 8.5 (Tris–HCl 50 mM), 0.5 M NaCl, displacement): 40 ± 3 s⁻¹ | koff ([2]; pH 9, pH 9.0 (Tris–HCl 50 mM), 0.5 M NaCl, displacement): 39 ± 2 s⁻¹ | koff (N-SH3 E140A (Crkl) [3]; 0 M NaCl): 254 ± 3 s⁻¹ | koff (N-SH3 E140A (Crkl) [3]; 0.05 M NaCl): 330 ± 3 s⁻¹ | koff (N-SH3 E140A (Crkl) [3]; 0.10 M NaCl): 302 ± 2 s⁻¹ | koff (N-SH3 E140A (Crkl) [3]; 0.15 M NaCl): 339 ± 2 s⁻¹ | kon (N-SH3 E140A (Crkl) [4]; 0 M NaCl, 0.5 µM dansylated peptide vs 2.0–4.5 µM N-SH3 E140A): 7.8e+07 ± 6e+06 M⁻¹ s⁻¹ | kon (N-SH3 E140A (Crkl) [4]; 0.05 M NaCl, 0.5 µM dansylated peptide vs 3.0–5.5 µM N-SH3 E140A): 8.9e+07 ± 8e+06 M⁻¹ s⁻¹ | kon (N-SH3 E140A (Crkl) [4]; 0.10 M NaCl, 0.5 µM dansylated peptide vs 3.0–5.0 µM N-SH3 E140A): 7.7e+07 ± 8e+06 M⁻¹ s⁻¹ | kon (N-SH3 E140A (Crkl) [4]; 0.15 M NaCl, 0.5 µM dansylated peptide vs 3.0–5.5 µM N-SH3 E140A): 8.1e+07 ± 8e+06 M⁻¹ s⁻¹ | kon (N-SH3 D138A (Crkl) [5]; 0 M NaCl, 0.5 µM dansylated peptide vs 2.0–4.5 µM N-SH3 D138A): 1.58e+08 ± 1.2e+07 M⁻¹ s⁻¹ | kon (N-SH3 D138A (Crkl) [5]; 0.05 M NaCl, 0.5 µM dansylated peptide vs 2.5–6.0 µM N-SH3 D138A): 8.1e+07 ± 8e+06 M⁻¹ s⁻¹ | kon (N-SH3 D138A (Crkl) [5]; 0.10 M NaCl, 0.5 µM dansylated peptide vs 2.5–6.0 µM N-SH3 D138A): 4.8e+07 ± 8e+06 M⁻¹ s⁻¹ | kon (N-SH3 D138A (Crkl) [5]; 0.15 M NaCl, 0.5 µM dansylated peptide vs 2.5–6.0 µM N-SH3 D138A): 1.2e+07 ± 5e+06 M⁻¹ s⁻¹
